In patent publication US10294202B2, “Pyrrolidinones as herbicides” (FMC Corporation, priority 2013, dated 2019):

Key:
[1] = test system: barnyardgrass; assay: Test A pre-/postemergence herbicide test; format: in vivo, Echinochloa crus-galli
Summary of the method: (§1)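 Directed soil spray to seeded pots (preemergence) or spray onto one- to two-leaf seedlings 2–10 cm tall (postemergence); loam/sand substrate throughout. Evaluated visually after about 10 days against untreated plants, 0 = no effect, 100 = complete control.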

[2] = test system: crabgrass, large; assay: Test A pre-/postemergence herbicide test; format: in vivo, Digitaria sanguinalis
Summary of the method: as §1

[3] = test system: giant foxtail; assay: Test A pre-/postemergence herbicide test; format: in vivo, Setaria faberii
Summary of the method: as §1

[4] = test system: morningglory; assay: Test A pre-/postemergence herbicide test; format: in vivo, Ipomoea spp.
Summary of the method: as §1

[5] = test system: pigweed; assay: Test A pre-/postemergence herbicide test; format: in vivo, Amaranthus retroflexus
Summary of the method: as §1

[6] = test system: velvetleaf; assay: Test A pre-/postemergence herbicide test; format: in vivo, Abutilon theophrasti
Summary of the method: as §1

[7] = test system: wheat; assay: Test A pre-/postemergence herbicide test; format: in vivo, Triticum aestivum
Summary of the method: as §1

[8] = test system: corn; assay: Test A pre-/postemergence herbicide test; format: in vivo, Zea mays
Summary of the method: as §1

[9] = test system: rice; assay: Test B flooded paddy test; format: in vivo, Oryza sativa; conditions: Flood, scale of 0 to 100 where 0 is no effect and 100 is complete control
Summary of the method: (§2)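 2-leaf plants; flood 3 cm over soil; compound into paddy water; depth held. Greenhouse 13–15 d. Visual rating vs controls, 0 (no effect) to 100 (complete control); dash = not tested.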

[10] = test system: sedge, umbrella; assay: Test B flooded paddy test; format: in vivo, Cyperus difformis; conditions: Flood, scale of 0 to 100 where 0 is no effect and 100 is complete control
Summary of the method: as §2

[11] = test system: ducksalad; assay: Test B flooded paddy test; format: in vivo, Heteranthera limosa; conditions: Flood, scale of 0 to 100 where 0 is no effect and 100 is complete control
Summary of the method: as §2

[12] = test system: barnyardgrass; assay: Test B flooded paddy test; format: in vivo, Echinochloa crus-galli; conditions: Flood, scale of 0 to 100 where 0 is no effect and 100 is complete control
Summary of the method: as §2

[13] = Postemergence, 125 g ai/ha, 0 to 100 scale, 0 is no effect, 100 is complete control
[14] = Postemergence, 500 g ai/ha, 0 to 100 scale (0 no effect, 100 complete control)
[15] = Preemergence, 125 g ai/ha, 0 to 100 scale where 0 is no effect and 100 is complete control
[16] = preemergence, 500 g ai/ha, 0 to 100 scale, 0 is no effect and 100 is complete control
[17] = Postemergence, 125 g ai/ha, 0 to 100 scale, 0 no effect, 100 complete control
[18] = Preemergence, 125 g ai/ha, visual rating on 0 to 100 scale (0 no effect, 100 complete control)
[19] = preemergence, 500 g ai/ha, 0 to 100 scale (0 no effect, 100 complete control)
[20] = preemergence, 500 g ai/ha, 0 to 100 scale
[21] = 125 g ai/ha, visual rating, 0 to 100 scale, 0 no effect, 100 complete control, approximately 10 days, preemergence

O=C1NCC(c2ccc(C(F)(F)F)cc2F)C1C(=O)Nc1ccccc1C(F)(F)F (racemic) [Compound 261] was tested, and the “Plant response rating, Barnyardgrass” value [1, 13] was 0, the “Plant response rating, Barnyardgrass” value [1, 14] was 50 and the “Plant response rating, Barnyardgrass” value [1, 15] was 0. For the same molecule, the “Plant response rating, Barnyardgrass” value [1, 16] was 0, the “Plant response rating, Crabgrass, Large” value [2, 13] was 70 and the “Plant response rating, Crabgrass, Large” value [2, 14] was 80. For the same molecule, the “Plant response rating, Crabgrass, Large” value [2, 15] was 80, the “Plant response rating, Crabgrass, Large” value [2, 16] was 90 and the “Plant response rating, Foxtail, Giant” value [3, 13] was 0. The “Plant response rating, Foxtail, Giant” value [3, 14] was 60, the “Plant response rating, Foxtail, Giant” value [3, 15] was 10 and the “Plant response rating, Foxtail, Giant” value [3, 16] was 70. For the same molecule, the “Plant response rating, Morningglory” value [4, 13] was 0, the “Plant response rating, Morningglory” value [4, 14] was 0 and the “Plant response rating, Morningglory” value [4, 15] was 0. The “Plant response rating, Morningglory” value [4, 16] was 0, the “Plant response rating, Pigweed” value [5, 13] was 0 and the “Plant response rating, Pigweed” value [5, 14] was 40. The “Plant response rating, Pigweed” value [5, 15] was 0, the “Plant response rating, Pigweed” value [5, 16] was 0 and the “Plant response rating, Velvetleaf” value [6, 13] was 0. For the same molecule, the “Plant response rating, Velvetleaf” value [6, 14] was 30, the “Plant response rating, Velvetleaf” value [6, 15] was 0 and the “Plant response rating, Velvetleaf” value [6, 16] was 0. For the same molecule, the “Plant response rating, Wheat” value [7, 13] was 0, the “Plant response rating, Wheat” value [7, 14] was 0 and the “Plant response rating, Wheat” value [7, 15] was 0. For the same molecule, the “Plant response rating, Wheat” value [7, 16] was 0, the “Plant response rating, Corn” value [8, 13] was 0 and the “Plant response rating, Corn” value [8, 14] was 0. For the same molecule, the “Plant response rating, Corn” value [8, 15] was 0, the “Plant response rating, Corn” value [8, 16] was 0 and the “Plant response rating, Rice” value ([9]; 1000 g ai/ha) was 0. The “Plant response rating, Sedge, Umbrella” value ([10]; 1000 g ai/ha) was 0, the “Plant response rating, Ducksalad” value ([11]; 1000 g ai/ha) was 90 and the “Plant response rating, Barnyardgrass” value ([12]; 1000 g ai/ha) was 0.

In the case of O=C1NCC(c2ccc(F)c(F)c2)C1C(=O)Nc1ccccc1OC(F)(F)F (stereo not drawn) [Compound 54], the “Plant response rating, Barnyardgrass” value [1, 17] was 0, the “Plant response rating, Barnyardgrass” value [1, 14] was 0 and the “Barnyardgrass plant response rating” value [1, 18] was 0. The “Plant response rating, Barnyardgrass” value [1, 19] was 20, the “Plant response rating, Crabgrass, Large” value [2, 17] was 70 and the “Plant response rating, Crabgrass, Large” value [2, 14] was 80. For the same molecule, the “Crabgrass, Large plant response rating” value [2, 18] was 90, the “Plant response rating, Crabgrass, Large” value [2, 20] was 90 and the “Plant response rating, Foxtail, Giant” value [3, 17] was 60. For the same molecule, the “Plant response rating, Foxtail, Giant” value [3, 14] was 70, the “Foxtail, Giant plant response rating” value [3, 18] was 90 and the “Plant response rating, Foxtail, Giant” value [3, 20] was 90. For the same molecule, the “Plant response rating, Morningglory” value [4, 17] was 0, the “Plant response rating, Morningglory” value [4, 14] was 0 and the “Morningglory plant response rating” value [4, 18] was 0. For the same molecule, the “Plant response rating, Morningglory” value [4, 20] was 0, the “Plant response rating, Pigweed” value [5, 17] was 0 and the “Plant response rating, Pigweed” value [5, 14] was 0. The “Pigweed plant response rating” value [5, 18] was 0, the “Plant response rating, Pigweed” value [5, 20] was 0 and the “Plant response rating, Velvetleaf” value [6, 17] was 0. For the same molecule, the “Plant response rating, Velvetleaf” value [6, 14] was 0, the “Velvetleaf plant response rating” value [6, 18] was 0 and the “Plant response rating, Velvetleaf” value [6, 20] was 0. The “Plant response rating, Wheat” value [7, 17] was 0, the “Plant response rating, Wheat” value [7, 14] was 0 and the “Wheat plant response rating” value [7, 18] was 0. The “Plant response rating, Wheat” value [7, 20] was 20, the “Plant response rating, Corn” value [8, 17] was 0 and the “Plant response rating, Corn” value [8, 14] was 0. The “Corn plant response rating” value [8, 18] was 0, the “Plant response rating, Corn” value [8, 20] was 0 and the “Plant response rating, Rice” value ([9]; 250 g ai/ha) was 20. The “Plant response rating, Sedge, Umbrella” value ([10]; 250 g ai/ha) was 0, the “Plant response rating, Ducksalad” value ([11]; 250 g ai/ha) was 70 and the “Plant response rating, Barnyardgrass” value ([12]; 250 g ai/ha) was 0.

O=C1NCC(c2ccc(OC(F)(F)F)cc2)C1C(=O)Nc1ccccc1F (racemic) [Compound 256] was tested, and the “Plant response rating, Barnyardgrass” value [1, 13] was 0, the “Plant response rating, Barnyardgrass” value [1, 14] was 20 and the “Plant response rating, Barnyardgrass” value [1, 15] was 0. The “Plant response rating, Barnyardgrass” value [1, 16] was 20, the “Plant response rating, Crabgrass, Large” value [2, 13] was 70 and the “Plant response rating, Crabgrass, Large” value [2, 14] was 90. For the same molecule, the “Plant response rating, Crabgrass, Large” value [2, 15] was 80, the “Plant response rating, Crabgrass, Large” value [2, 16] was 90 and the “Plant response rating, Foxtail, Giant” value [3, 13] was 40. The “Plant response rating, Foxtail, Giant” value [3, 14] was 70, the “Plant response rating, Foxtail, Giant” value [3, 15] was 20 and the “Plant response rating, Foxtail, Giant” value [3, 16] was 60. For the same molecule, the “Plant response rating, Morningglory” value [4, 13] was 0, the “Plant response rating, Morningglory” value [4, 14] was 0 and the “Plant response rating, Morningglory” value [4, 15] was 0. For the same molecule, the “Plant response rating, Morningglory” value [4, 16] was 0, the “Plant response rating, Pigweed” value [5, 13] was 0 and the “Plant response rating, Pigweed” value [5, 14] was 0. The “Plant response rating, Pigweed” value [5, 15] was 0, the “Plant response rating, Pigweed” value [5, 16] was 0 and the “Plant response rating, Velvetleaf” value [6, 13] was 0. For the same molecule, the “Plant response rating, Velvetleaf” value [6, 14] was 0, the “Plant response rating, Velvetleaf” value [6, 15] was 0 and the “Plant response rating, Velvetleaf” value [6, 16] was 0. For the same molecule, the “Plant response rating, Wheat” value [7, 13] was 0, the “Plant response rating, Wheat” value [7, 14] was 20 and the “Plant response rating, Wheat” value [7, 15] was 0. The “Plant response rating, Wheat” value [7, 16] was 0, the “Plant response rating, Corn” value [8, 13] was 0 and the “Plant response rating, Corn” value [8, 14] was 0. The “Plant response rating, Corn” value [8, 15] was 0, the “Plant response rating, Corn” value [8, 16] was 0 and the “Plant response rating, Rice” value ([9]; 250 g ai/ha) was 0. For the same molecule, the “Plant response rating, Sedge, Umbrella” value ([10]; 250 g ai/ha) was 50, the “Plant response rating, Ducksalad” value ([11]; 250 g ai/ha) was 60 and the “Plant response rating, Barnyardgrass” value ([12]; 250 g ai/ha) was 0.

O=C1NCC(c2ccc3ccccc3c2)C1C(=O)Nc1ccccc1F (racemic) [Compound 115] was tested, and the “Plant response rating, Barnyardgrass” value [1, 21] was 0, the “Plant response rating, Barnyardgrass” value [1, 17] was 10 and the “Plant response rating, Barnyardgrass” value [1, 14] was 50. For the same molecule, the “Plant response rating, Barnyardgrass” value [1, 19] was 50, the “Plant response rating, Crabgrass, Large” value [2, 21] was 70 and the “Plant response rating, Crabgrass, Large” value [2, 17] was 0. The “Crabgrass, Large plant response rating (0 to 100 scale, 0 is no effect, 100 is complete control)” value ([2]; Postemergence, 500 g ai/ha) was 50, the “Plant response rating, Crabgrass, Large” value [2, 20] was 80 and the “Plant response rating, Foxtail, Giant” value [3, 21] was 20. The “Plant response rating, Foxtail, Giant” value [3, 17] was 0, the “Foxtail, Giant plant response rating (0 to 100 scale, 0 is no effect, 100 is complete control)” value ([3]; Postemergence, 500 g ai/ha) was 10 and the “Plant response rating, Foxtail, Giant” value [3, 20] was 20. The “Plant response rating, Morningglory” value [4, 21] was 0, the “Plant response rating, Morningglory” value [4, 17] was 0 and the “Morningglory plant response rating (0 to 100 scale, 0 is no effect, 100 is complete control)” value ([4]; Postemergence, 500 g ai/ha) was 0. The “Plant response rating, Morningglory” value [4, 20] was 0, the “Plant response rating, Pigweed” value [5, 21] was 0 and the “Plant response rating, Pigweed” value [5, 17] was 0. For the same molecule, the “Pigweed plant response rating (0 to 100 scale, 0 is no effect, 100 is complete control)” value ([5]; Postemergence, 500 g ai/ha) was 0, the “Plant response rating, Pigweed” value [5, 20] was 0 and the “Plant response rating, Velvetleaf” value [6, 21] was 0. For the same molecule, the “Plant response rating, Velvetleaf” value [6, 17] was 0, the “Velvetleaf plant response rating (0 to 100 scale, 0 is no effect, 100 is complete control)” value ([6]; Postemergence, 500 g ai/ha) was 0 and the “Plant response rating, Velvetleaf” value [6, 20] was 0. For the same molecule, the “Plant response rating, Wheat” value [7, 21] was 0, the “Plant response rating, Wheat” value [7, 17] was 0 and the “Wheat plant response rating (0 to 100 scale, 0 is no effect, 100 is complete control)” value ([7]; Postemergence, 500 g ai/ha) was 0. For the same molecule, the “Plant response rating, Wheat” value [7, 20] was 0, the “Plant response rating, Corn” value [8, 21] was 0 and the “Plant response rating, Corn” value [8, 17] was 0. For the same molecule, the “Plant response rating, Corn” value [8, 14] was 0, the “Plant response rating, Corn” value [8, 20] was 0 and the “Plant response rating, Rice” value ([9]; 1000 g ai/ha) was 0. The “Plant response rating, Sedge, Umbrella” value ([10]; 1000 g ai/ha) was 0, the “Plant response rating, Ducksalad” value ([11]; 1000 g ai/ha) was 90 and the “Plant response rating, Barnyardgrass” value ([12]; 1000 g ai/ha) was 20.
